Test results reported in the NIST ThermoML archive (doi:10.1016/j.fluid.2018.07.028).
± gives the expanded uncertainty stated by the source.

Assay: activity coefficient (dimensionless); of the first substance listed, at infinite dilution; xn = mol fraction of the nth substance listed
Settings: 101.33 kPa, Liquid, Chromatography, x1 = 0

| Compound | activity coefficient (358.15 K) | activity coefficient (368.15 K) | activity coefficient (378.15 K) | activity coefficient (388.15 K) | activity coefficient (398.15 K) | activity coefficient (408.15 K) |
| --- | --- | --- | --- | --- | --- | --- |
| C1CCCCCCC1 [cyclooctane] + CCCC[P+](CCCC)(CCCC)CCCC.O=S(=O)([N-]S(=O)(=O)C(F)(F)F)C(F)(F)F | 4.08 ± 0.28 | 4.04 ± 0.28 | 4 ± 0.27 | 3.97 ± 0.27 | 3.94 ± 0.27 | 3.91 ± 0.27 |
| C1CCCC1 [cyclopentane] + CCCC[P+](CCCC)(CCCC)CCCC.O=S(=O)([N-]S(=O)(=O)C(F)(F)F)C(F)(F)F | 2.33 ± 0.16 | 2.35 ± 0.16 | 2.37 ± 0.16 | 2.38 ± 0.16 | 2.4 ± 0.16 | 2.42 ± 0.16 |
| CCCCCCCCCC [decane] + CCCC[P+](CCCC)(CCCC)CCCC.O=S(=O)([N-]S(=O)(=O)C(F)(F)F)C(F)(F)F | 10.4 ± 0.7 | 10.1 ± 0.7 | 9.88 ± 0.67 | 9.67 ± 0.66 | 9.47 ± 0.65 | 9.29 ± 0.63 |
| CCOCC [diethyl ether] + CCCC[P+](CCCC)(CCCC)CCCC.O=S(=O)([N-]S(=O)(=O)C(F)(F)F)C(F)(F)F | 1.65 ± 0.11 | 1.7 ± 0.11 | 1.76 ± 0.12 | 1.8 ± 0.12 | 1.86 ± 0.13 | 1.91 ± 0.13 |
| CC(C)OC(C)C [diisopropyl ether] + CCCC[P+](CCCC)(CCCC)CCCC.O=S(=O)([N-]S(=O)(=O)C(F)(F)F)C(F)(F)F | 2.88 ± 0.2 | 2.94 ± 0.2 | 3 ± 0.2 | 3.05 ± 0.21 | 3.11 ± 0.21 | 3.17 ± 0.22 |
| CCCOCCC [dipropyl ether] + CCCC[P+](CCCC)(CCCC)CCCC.O=S(=O)([N-]S(=O)(=O)C(F)(F)F)C(F)(F)F | 2.73 ± 0.19 | 2.78 ± 0.19 | 2.83 ± 0.19 | 2.88 ± 0.2 | 2.93 ± 0.2 | 2.98 ± 0.2 |
| CCO [ethanol] + CCCC[P+](CCCC)(CCCC)CCCC.O=S(=O)([N-]S(=O)(=O)C(F)(F)F)C(F)(F)F | 1.42 ± 0.09 | 1.36 ± 0.09 | 1.31 ± 0.09 | 1.26 ± 0.08 | 1.22 ± 0.08 | 1.18 ± 0.08 |
| CCOC(C)=O [ethyl acetate] + CCCC[P+](CCCC)(CCCC)CCCC.O=S(=O)([N-]S(=O)(=O)C(F)(F)F)C(F)(F)F | 0.835 ± 0.054 | 0.869 ± 0.056 | 0.905 ± 0.057 | 0.939 ± 0.059 | 0.975 ± 0.061 | 1.01 ± 0.063 |
| CCc1ccccc1 [ethylbenzene] + CCCC[P+](CCCC)(CCCC)CCCC.O=S(=O)([N-]S(=O)(=O)C(F)(F)F)C(F)(F)F | 1.49 ± 0.1 | 1.54 ± 0.1 | 1.58 ± 0.1 | 1.63 ± 0.11 | 1.67 ± 0.11 | 1.71 ± 0.11 |
| CCCCCCC [heptane] + CCCC[P+](CCCC)(CCCC)CCCC.O=S(=O)([N-]S(=O)(=O)C(F)(F)F)C(F)(F)F | 5.4 ± 0.37 | 5.38 ± 0.37 | 5.37 ± 0.37 | 5.35 ± 0.36 | 5.34 ± 0.36 | 5.33 ± 0.36 |
| C=CCCCC [hex-1-ene] + CCCC[P+](CCCC)(CCCC)CCCC.O=S(=O)([N-]S(=O)(=O)C(F)(F)F)C(F)(F)F | 3.15 ± 0.21 | 3.2 ± 0.22 | 3.24 ± 0.22 | 3.28 ± 0.22 | 3.32 ± 0.23 | 3.35 ± 0.23 |
| CCCCCC [hexane] + CCCC[P+](CCCC)(CCCC)CCCC.O=S(=O)([N-]S(=O)(=O)C(F)(F)F)C(F)(F)F | 4.39 ± 0.3 | 4.41 ± 0.3 | 4.44 ± 0.3 | 4.46 ± 0.3 | 4.49 ± 0.31 | 4.51 ± 0.31 |
| CC(C)c1ccccc1 [isopropylbenzene] + CCCC[P+](CCCC)(CCCC)CCCC.O=S(=O)([N-]S(=O)(=O)C(F)(F)F)C(F)(F)F | 1.92 ± 0.13 | 1.97 ± 0.13 | 2.02 ± 0.14 | 2.07 ± 0.14 | 2.12 ± 0.14 | 2.17 ± 0.15 |
| CO [methanol] + CCCC[P+](CCCC)(CCCC)CCCC.O=S(=O)([N-]S(=O)(=O)C(F)(F)F)C(F)(F)F | 1.28 ± 0.08 | 1.23 ± 0.08 | 1.18 ± 0.08 | 1.14 ± 0.07 | 1.1 ± 0.07 | 1.06 ± 0.07 |
| CCCC(=O)OC [methyl butanoate] + CCCC[P+](CCCC)(CCCC)CCCC.O=S(=O)([N-]S(=O)(=O)C(F)(F)F)C(F)(F)F | 0.946 ± 0.06 | 0.989 ± 0.062 | 1.03 ± 0.06 | 1.08 ± 0.07 | 1.12 ± 0.07 | 1.17 ± 0.07 |
| COC(C)=O [methyl ethanoate] + CCCC[P+](CCCC)(CCCC)CCCC.O=S(=O)([N-]S(=O)(=O)C(F)(F)F)C(F)(F)F | 0.753 ± 0.05 | 0.785 ± 0.051 | 0.816 ± 0.053 | 0.847 ± 0.054 | 0.878 ± 0.056 | 0.909 ± 0.058 |
| CCC(=O)OC [methyl propanoate] + CCCC[P+](CCCC)(CCCC)CCCC.O=S(=O)([N-]S(=O)(=O)C(F)(F)F)C(F)(F)F | 0.82 ± 0.053 | 0.857 ± 0.055 | 0.894 ± 0.057 | 0.931 ± 0.059 | 0.967 ± 0.061 | 1 ± 0.06 |
| CC1CCCCC1 [methylcyclohexane] + CCCC[P+](CCCC)(CCCC)CCCC.O=S(=O)([N-]S(=O)(=O)C(F)(F)F)C(F)(F)F | 3.5 ± 0.24 | 3.49 ± 0.24 | 3.48 ± 0.24 | 3.48 ± 0.24 | 3.47 ± 0.24 | 3.46 ± 0.24 |
| CCCCCCCCC [nonane] + CCCC[P+](CCCC)(CCCC)CCCC.O=S(=O)([N-]S(=O)(=O)C(F)(F)F)C(F)(F)F | 8.31 ± 0.57 | 8.15 ± 0.56 | 8.01 ± 0.55 | 7.87 ± 0.54 | 7.74 ± 0.53 | 7.62 ± 0.52 |
| C=CCCCCCC [oct-1-ene] + CCCC[P+](CCCC)(CCCC)CCCC.O=S(=O)([N-]S(=O)(=O)C(F)(F)F)C(F)(F)F | 4.9 ± 0.33 | 4.92 ± 0.34 | 4.94 ± 0.34 | 4.96 ± 0.34 | 4.98 ± 0.34 | 5.01 ± 0.34 |
| CCCCCCCC [octane] + CCCC[P+](CCCC)(CCCC)CCCC.O=S(=O)([N-]S(=O)(=O)C(F)(F)F)C(F)(F)F | 6.69 ± 0.46 | 6.62 ± 0.45 | 6.56 ± 0.45 | 6.5 ± 0.44 | 6.44 ± 0.44 | 6.39 ± 0.44 |
| CCCCCO [pentan-1-ol] + CCCC[P+](CCCC)(CCCC)CCCC.O=S(=O)([N-]S(=O)(=O)C(F)(F)F)C(F)(F)F | 1.81 ± 0.12 | 1.76 ± 0.12 | 1.71 ± 0.11 | 1.67 ± 0.11 | 1.63 ± 0.11 | 1.59 ± 0.11 |
| CCCC(C)=O [pentan-2-one] + CCCC[P+](CCCC)(CCCC)CCCC.O=S(=O)([N-]S(=O)(=O)C(F)(F)F)C(F)(F)F | 0.62 ± 0.043 | 0.651 ± 0.045 | 0.682 ± 0.046 | 0.714 ± 0.048 | 0.744 ± 0.049 | 0.774 ± 0.051 |
